Our source for the speed of sound and mass density values is the NIST ThermoML archive (doi:10.1021/je200609g).

The conditions of the data set: 101.33 kPa, Liquid; for speed of sound: Sing-around technique in a fixed-path interferometer; for mass density: Vibrating tube method.

Numbers after ± are expanded uncertainties.

As for `CCn1cc[n+](C)c1.O=S(=O)([O-])C(F)(F)F` [1-ethyl-3-methylimidazolium trifluoromethanesulfonate], the speed of sound is, setting by setting: (278.15 K) 1482.2 ± 2.1 m/s; (288.15 K) 1458.3 ± 2.1 m/s; (298.15 K) 1435.6 ± 2.1 m/s; (308.15 K) 1413.2 ± 2.1 m/s; (318.15 K) 1391.3 ± 2.1 m/s; (328.15 K) 1369.7 ± 2.1 m/s. Besides, the mass density is reported as 1400.51 ± 1.8 kg/m3 (278.15 K); 1392.02 ± 1.8 kg/m3 (288.15 K); 1383.58 ± 1.7 kg/m3 (298.15 K); 1375.19 ± 1.7 kg/m3 (308.15 K); 1366.86 ± 1.7 kg/m3 (318.15 K); 1358.59 ± 1.7 kg/m3 (328.15 K).
With `C1CCOC1` [tetrahydrofuran], the speed of sound is, setting by setting: (278.15 K) 1375 ± 0.87 m/s; (288.15 K) 1325.8 ± 0.85 m/s; (298.15 K) 1277.4 ± 0.83 m/s; (308.15 K) 1229.6 ± 0.81 m/s; (318.15 K) 1182.4 ± 0.8 m/s. Also, the mass density (278.15 K) came to 903.71 ± 0.09 kg/m3; the mass density (288.15 K) worked out at 892.92 ± 0.09 kg/m3; the mass density (298.15 K) is on record as 882.02 ± 0.1 kg/m3; the mass density (308.15 K) is 871 ± 0.1 kg/m3; the mass density (318.15 K) was 859.84 ± 0.11 kg/m3.
Take `CC(C)O` [propan-2-ol]: the speed of sound (278.15 K) amounted to 1208.5 ± 0.74 m/s; the speed of sound (288.15 K) is listed as 1173.1 ± 0.73 m/s; the speed of sound (298.15 K) amounted to 1138.2 ± 0.72 m/s; the speed of sound (308.15 K) is listed as 1103.2 ± 0.71 m/s; the speed of sound (318.15 K) is 1068.1 ± 0.7 m/s; the speed of sound (328.15 K) was 1032.6 ± 0.69 m/s. The mass density by setting is: (278.15 K) 797.34 ± 0.12 kg/m3; (288.15 K) 789.22 ± 0.13 kg/m3; (298.15 K) 780.89 ± 0.13 kg/m3; (308.15 K) 772.28 ± 0.13 kg/m3; (318.15 K) 763.32 ± 0.14 kg/m3; (328.15 K) 753.95 ± 0.14 kg/m3.
